Experimental findings from patent US7235263B2, “Processes for controlling microbial organic compound production” (Kimberly-Clark Worldwide, Inc., priority 2001, dated 2007) are described below.

Format in all cases: cell-based
The subject of one assay is Proteus mirabilis. Briefly: Growth of aerobically cultivated Proteus mirabilis in urine:TSB, microtiter serial dilution, optical density. Conditions: for optical density (bacterial cell growth): 48 hours at 37° C., aerobic. The protocol: Proteus mirabilis was cultured in TSB as described in Example 1 and transferred to a urine:TSB mixture (9:1) and incubated under aerobic conditions as described in Example 1. […] In a 96-well microtiter plate with a lid, 150 microliters of each 10% solution was introduced into the first and second columns of the wells. Using a multi-channel pipette, 150 microliters of urine:TSB mixture was introduced into each well except the first column. Beginning at the second column of wells, serial dilutions were made by removing 150 microliters from the second column and transferring it to the third column. The mixture was mixed by pipetting up and down three times. The serial dilutions continued across each column of the plate and, after column 11, 150 microliters was discarded leaving column 12 as the 0% solution. Each well was then inoculated with 1 microliter of Proteus mirabilis, except for the negative control rows. One to three drops of anti-fogging solution was place on the plate lids with a cotton applicator, and allowed to air dry. The mixtures were incubated for 48 hours at 37° C. under aerobic conditions. After incubation of the samples, each was analyzed for bacterial cell growth utilizing the optical density procedure as set forth in Example 1.

Assay [1] deals with Proteus mirabilis (ATCC 29906). The assay is described as follows: Bacterial yield of facultatively grown Proteus mirabilis in urine:TSB (from optical density). Conditions: Table 7; 10% (w/v) mannitol; facultative. On the procedure: Proteus mirabilis (ATCC 29906) were recovered from frozen state by growing the appropriate bacterial coated MicroBank Bead (Pro Lab, Austin Tex.) in 10 mL trypticase soy broth (TSB, Difco, Ann Arbor, Mich.) in a 15 mL sterile loosely tightened screw capped conical tube overnight at 37° C. The tube was held stationary. (E. coli (ATCC 8739), utilized in Example 6 herein, was recovered using the same procedure described herein for Proteus mirabilis). Upon observation of turbidity, the bacterial suspension was checked for purity by isolation plate and Gram stain. Once determined that the isolate was Proteus mirabilis (or E. coli in Example 6), a colony from the isolation plate was transferred to 10 mL of TSB in a 15 mL sterile screw capped conical tube and incubated overnight at 37° C. under facultative conditions. Samples of bacterial suspension resulting from this overnight TSB culture were used to initiate all experiments utilizing Proteus mirabilis bacteria (or E. coli in Example 6).
(§1) Proteus mirabilis was taken from a TSB culture (described in (1) above) and grown under various conditions for use in the Examples. For bacteria to be grown under aerobic conditions, 50 microliters of Proteus mirabilis was taken from a TSB culture prepared as described above and inoculated into a 50 mL volume of a freshly made 9:1 (by volume) pooled adult female urine:TSB mixture into a 250 mL shake flask. This mixture was rotated at 250 rpm at 37° C. overnight to grow the bacteria. For bacteria to be grown under facultative conditions, 10 microliters of Proteus mirabilis was taken from a TSB culture prepared as described above and inoculated into a 10 mL volume of a freshly made 9:1 (by volume) pooled adult female urine:TSB mixture into a 15 mL tube. The tube was loosely fitted with a screw cap, and held stationary at 37° C. overnight to grow the bacteria. For bacteria to be grown under anaerobic conditions, 10 microliters of Proteus mirabilis was taken from a TSB culture prepared as described above and inoculated into a 10 mL volume of a freshly made 9:1 (by volume) pooled adult female urine:TSB mixture into a 15 mL conical tube. The tube was purged with nitrogen and a screw cap tightly closed, and then was held stationary overnight at 37° C. to grow the bacteria.
In this Example, five samples were prepared and analyzed to determine: (1) Bacterial Yield (CFU/mL) calculated from optical density; (3) Percent viability of EPIOCULAR; and (4) EPIOCULAR IL-8. The samples included: (1) Deionized Water; (2) A urine:TSB mixture (9:1 by volume) as described above; (3) A urine:TSB mixture containing Proteus mirabilis bacteria grown under aerobic conditions as described above; (4) A urine:TSB mixture containing Proteus mirabilis bacteria grown under facultative conditions as described above; and (5) A urine:TSB mixture containing Proteus mirabilis bacteria grown under anaerobic conditions as described above.
(§2) In this Example, six different samples were prepared for analysis. The first sample comprised a urine:TSB mixture that was prepared in the same manner as that described in Example 1. […] The tube was loosely fitted with a screw cap, and held stationary at 37° C. overnight to grow the bacteria. […] The fifth sample comprising urine:TSB:Proteus mirabilis (facultatively grown) was prepared in the same manner as that described in Example 1.

In assay [2] the test system is Proteus mirabilis (ATCC 29906). The assay is described as follows: Ammonia production by facultatively grown Proteus mirabilis in urine:TSB (ammonia probe). On the procedure: as §1
Upon completion of the respective incubation periods of the samples, optical density measurements of each sample were taken as described above and ammonia production of the growth solutions was measured using an ammonia combination probe (Beckman, Fullerton, Calif.) by record mV using an Orion pH meter (Orion, Boston, Mass.). Orion ammonia standards (Orion) were used to calibrate the instrument.
as §2

Setting [3] is: Table 7, 10% (w/v) mannitol, facultative.

mannitol peroxide [24 Hr.]: the “optical density (bacterial cell growth)” value stood at 0.99 with Proteus mirabilis (0.0097% in urine:TSB); 0.98 with Proteus mirabilis (0.0195% in urine:TSB); 0.99 in the assay on Proteus mirabilis (0.0391% in urine:TSB); 0.97 in the assay with Proteus mirabilis (0.0785% in urine:TSB); 0.97 with Proteus mirabilis (0.156% in urine:TSB); 0.97 in the assay with Proteus mirabilis (0.313% in urine:TSB). The “optical density (bacterial cell growth)” value in the assay with Proteus mirabilis (0.625% in urine:TSB) was found to be 0.96; with Proteus mirabilis (1.25% in urine:TSB), 0.95; in the assay with Proteus mirabilis (2.5% in urine:TSB), 0.93; in the assay on Proteus mirabilis (5% in urine:TSB) it was 0.88; in the assay on Proteus mirabilis (10% in urine:TSB) it was 0.80.
With `OC[C@@H](O)[C@@H](O)[C@H](O)[C@H](O)CO` [Mannitol, mannitol, reference compound], the “Bacterial Yields” value in assay [1] worked out at 6.91E+8 CFU/mL. Moreover, the “Ammonia Produced (n = 3)” value in assay [2] (setting [3]) is reported as 621.6 ± 1.8 ppm. Further, the Ammonia/Cell in assay [2] (setting [3]) was 83.8 ppm/10E8CFU. Moreover, in assay [2] (mannitol in the absence of hydrogen peroxide, 10% (w/v)), the “impact on the production of ammonia in the bacteria” value is “does not significantly impact the production of ammonia”. The “optical density (bacterial cell growth)” value with Proteus mirabilis (0.0097% in urine:TSB) stood at 0.98; with Proteus mirabilis (0.0195% in urine:TSB), 0.98; in the assay on Proteus mirabilis (0.0391% in urine:TSB), 0.97; with Proteus mirabilis (0.0785% in urine:TSB), 0.97; in the assay with Proteus mirabilis (0.156% in urine:TSB), 0.92; with Proteus mirabilis (0.313% in urine:TSB) it was 0.92. The “optical density (bacterial cell growth)” value came to 0.98 in the assay on Proteus mirabilis (0.625% in urine:TSB); 1.02 in the assay on Proteus mirabilis (1.25% in urine:TSB); 0.99 in the assay on Proteus mirabilis (2.5% in urine:TSB); 0.89 with Proteus mirabilis (5% in urine:TSB); 0.87 with Proteus mirabilis (10% in urine:TSB). For the same molecule, the “effect on cell growth” value in the assay with Proteus mirabilis (at elevate concentrations) was “little, if any, effect on cell growth”; with Proteus mirabilis (at low concentrations), “no effect on cell growth”.
On to mannitol peroxide [3 Hr.], for which the “optical density (bacterial cell growth)” value in the assay with Proteus mirabilis (0.0097% in urine:TSB) worked out at 0.98; with Proteus mirabilis (0.0195% in urine:TSB) it was 0.94; in the assay with Proteus mirabilis (0.0391% in urine:TSB), 0.94; with Proteus mirabilis (0.0785% in urine:TSB), 0.97; with Proteus mirabilis (0.156% in urine:TSB) it was 0.99; in the assay with Proteus mirabilis (0.313% in urine:TSB), 0.83. Moreover, the “optical density (bacterial cell growth)” value worked out at 0.99 with Proteus mirabilis (0.625% in urine:TSB); 0.04 in the assay on Proteus mirabilis (1.25% in urine:TSB); 0.03 in the assay on Proteus mirabilis (2.5% in urine:TSB); 0.03 with Proteus mirabilis (5% in urine:TSB); 0.03 in the assay with Proteus mirabilis (10% in urine:TSB).
With mannitol peroxide [4.5 Hr.], the “optical density (bacterial cell growth)” value in the assay on Proteus mirabilis (0.0097% in urine:TSB) came out at 0.97; in the assay on Proteus mirabilis (0.0195% in urine:TSB) it was 0.98; in the assay with Proteus mirabilis (0.0391% in urine:TSB), 0.99; with Proteus mirabilis (0.0785% in urine:TSB), 0.99; with Proteus mirabilis (0.156% in urine:TSB), 0.98; in the assay on Proteus mirabilis (0.313% in urine:TSB), 0.99. The “optical density (bacterial cell growth)” value was determined as 0.93 in the assay with Proteus mirabilis (0.625% in urine:TSB); 0.99 in the assay on Proteus mirabilis (1.25% in urine:TSB); 0.97 in the assay with Proteus mirabilis (2.5% in urine:TSB); 0.87 in the assay on Proteus mirabilis (5% in urine:TSB); 0.04 in the assay on Proteus mirabilis (10% in urine:TSB).
